Assay results: patent US10407422B2, “Triazolopyridine inhibitors of myeloperoxidase” (priority 2015, dated 2019)

The compounds below were run against T1, myeloperoxidase (MPO) (Homo sapiens (Human), UniProt P05164) (assay: MPO peroxidation assay (Amplex Red assay)). Conditions: potency range class.
Assay type: biochemical
Experimental: MPO Peroxidation Assay (Amplex Red Assay) MPO peroxidation activity was measured in 100 mM KPi (pH 7.4) by utilizing the non-fluorescent reagent Amplex Red (Invitrogen Cat. #A12222) which can be oxidized to the highly fluorescent resorufin. Amplex Red is oxidized by the peroxidase action of MPO to resorufin. Reactions were carried out in 50 μL total volume by adding a 25 μL mixture of 200 pM myeloperoxidase and 40 nM H2O2(Sigma #349887) to 100 nL inhibitor in 100% DMSO in a 384 well Perkin Elmer Optiplate. Enzyme and compound were preincubated for ten minutes at room temperature. After the ten minute preincubation, 25 μL of an Amplex Red mixture containing 200 μM Amplex Red and 10 mM H2O2 was added to the plate. Kinetic determinations were carried out immediately on a Perkin Elmer Envision (15 minute kinetic read, Ex: 535 nm, Em: 590 nm). IC50 values were calculated by determining the slope of the linear portion of the kinetic trace (180-540 secs), and using that calculated slope to determine % inhibition occurring at each concentration of inhibitor using the following equation: [formula] where A=minimal Y value (activity level of inhibited sample), B=maximal Y value (activity level of uninhibited sample), C=Log IC50, D=Hill Slope, x=concentration of inhibitor. MPO Chlorination Assay (APF Assay)

T1 sequence (P05164 49-745): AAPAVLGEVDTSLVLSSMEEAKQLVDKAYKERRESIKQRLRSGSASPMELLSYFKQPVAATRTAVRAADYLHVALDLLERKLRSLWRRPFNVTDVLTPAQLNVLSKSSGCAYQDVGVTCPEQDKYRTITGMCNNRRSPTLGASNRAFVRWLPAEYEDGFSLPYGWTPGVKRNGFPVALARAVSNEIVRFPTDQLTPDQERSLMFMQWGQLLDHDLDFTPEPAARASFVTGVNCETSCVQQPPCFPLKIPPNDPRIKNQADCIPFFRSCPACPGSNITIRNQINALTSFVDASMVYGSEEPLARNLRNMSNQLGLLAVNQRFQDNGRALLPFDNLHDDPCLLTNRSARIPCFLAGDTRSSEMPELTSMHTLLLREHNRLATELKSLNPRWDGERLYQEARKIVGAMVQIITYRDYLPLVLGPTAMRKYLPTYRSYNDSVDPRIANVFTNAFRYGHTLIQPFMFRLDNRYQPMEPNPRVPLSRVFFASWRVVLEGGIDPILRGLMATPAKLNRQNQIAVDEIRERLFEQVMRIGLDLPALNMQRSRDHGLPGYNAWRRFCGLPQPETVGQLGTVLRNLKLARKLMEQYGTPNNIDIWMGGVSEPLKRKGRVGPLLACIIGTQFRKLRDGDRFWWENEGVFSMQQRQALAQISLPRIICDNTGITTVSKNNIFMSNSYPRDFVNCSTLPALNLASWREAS

Q: For `Nc1cc(Cc2cnn(Cc3cc([C@@H]4CCNC4)ccc3OC(F)F)c2)c2nn[nH]c2n1` [Example 200, 7-[(1-{[2-(Difluoromethoxy)-5-[(3 S)-pyrrolidin-3-yl]phenyl]methyl}-1H-pyrazol-4-yl)methyl]-3H-[1,2,3]triazolo[4,5-b]pyridin-5-amine], which IC50 is on record?
A: 1 to 100 nM

Q: Which IC50 does the source give for `Nc1cc(Cc2cnn(Cc3cc([C@@H]4CCNC4)ccc3Cl)c2)c2nn[nH]c2n1` [Example 198, 7-{[1-({2-Chloro-5-[(3 S)-pyrrolidin-3-yl]phenyl}methyl)-1H-pyrazol-4-yl]methyl}-3H-[1,2,3]triazolo[4,5-b]pyridin-5-amine] here?
A: 1 to 100 nM

Q: How did the IC50 turn out when `Nc1cc(Cc2cnn(Cc3cccc(Cc4ccccc4)c3)c2)c2nn[nH]c2n1` [Example 67, 7-((1-(3-Benzylbenzyl)-1H-pyrazol-4-yl)methyl)-3H-[1,2,3]triazolo[4,5-b]pyridin-5-amine] was run?
A: 1 to 100 nM

Q: How did the IC50 turn out when `Nc1cc(Cc2cnn(-c3cccc4ccccc34)c2)c2nn[nH]c2n1` [Example 9, 7-((1-(Naphthalen-1-yl)-1H-pyrazol-4-yl)methyl)-3H-[1,2,3]triazolo[4,5-b]pyridin-5-amine] was run?
A: 1 to 100 nM

Q: Which IC50 does the source give for `C[C@@H]1CN(c2cccc(Cn3cc(Cc4cc(N)nc5[nH]nnc45)cn3)c2)C[C@H](C)O1` [Example 228, 7-{[1-({3-[cis-2,6-Dimethylmorpholin-4-yl]phenyl}methyl)-1H-pyrazol-4-yl]methyl}-3H-[1,2,3]triazolo[4,5-b]pyridin-5-amine] here?
A: 101 to 999 nM

Q: Which IC50 does the source give for `Nc1cc(Cc2cnn(-c3ccc(F)cn3)c2)c2nn[nH]c2n1` [Example 17, 7-((1-(5-Fluoropyridin-2-yl)-1H-pyrazol-4-yl)methyl)-3H-[1,2,3]triazolo[4,5-b]pyridin-5-amine] here?
A: 1 to 100 nM

Q: How did the IC50 turn out when `COc1cccc(-n2cc(Cc3cc(N)nc4[nH]nnc34)cn2)c1` [Example 23, 7-((1-(3-Methoxyphenyl)-1H-pyrazol-4-yl)methyl)-3H-[1,2,3]triazolo[4,5-b]pyridin-5-amine] was run?
A: 1 to 100 nM

Q: With `Nc1cc(Cc2cnn(-c3ccc(Br)cc3)c2)c2nn[nH]c2n1` [Example 8, 7-((1-(4-Bromophenyl)-1H-pyrazol-4-yl)methyl)-3H-[1,2,3]triazolo[4,5-b]pyridin-5-amine] as the compound, how does the IC50 read?
A: 1 to 100 nM

Q: For `Nc1cc(Cc2ccc(-c3ccccc3)s2)c2nn[nH]c2n1` [Example 49, 7-((5-Phenylthiophen-2-yl)methyl)-3H-[1,2,3]triazolo[4,5-b]pyridin-5-amine], which IC50 is on record?
A: 1 to 100 nM

Q: How did the IC50 turn out when `Nc1cc(Cc2ccc(-c3ccccn3)s2)c2nn[nH]c2n1` [Example 51, 7-((5-(Pyridin-2-yl)thiophen-2-yl)methyl)-3H-[1,2,3]triazolo[4,5-b]pyridin-5-amine] was run?
A: 1 to 100 nM

Q: Which IC50 does the source give for `COc1ccc(-n2cc(Cc3cc(N)nc4[nH]nnc34)cn2)cc1` [Example 27, 7-((1-(4-Methoxyphenyl)-1H-pyrazol-4-yl)methyl)-3H-[1,2,3]triazolo[4,5-b]pyridin-5-amine] here?
A: 101 to 999 nM

Q: Which IC50 does the source give for `Cc1cc(Cc2cc(N)nc3[nH]nnc23)sc1C` [Example 50, 7-((4,5-Dimethylthiophen-2-yl)methyl)-3H-[1,2,3]triazolo[4,5-b]pyridin-5-amine] here?
A: 101 to 999 nM

Q: How did the IC50 turn out when `Cc1ccc(-n2cc(Cc3cc(N)nc4[nH]nnc34)cn2)c2ccccc12` [Example 13, 7-((1-(4-Methylnaphthalen-1-yl)-1H-pyrazol-4-yl)methyl)-3H-[1,2,3]triazolo[4,5-b]pyridin-5-amine] was run?
A: 1 to 100 nM

Q: `Cc1ccc(-n2cc(Cc3cc(N)nc4[nH]nnc34)cn2)cc1` [Example 26, 7-((1-(4-Methylphenyl)-1H-pyrazol-4-yl)methyl)-3H-[1,2,3]triazolo[4,5-b]pyridin-5-amine] was tested. Which IC50 did it give?
A: 101 to 999 nM

Q: How did the IC50 turn out when `NC(=O)c1ccc(Cn2cc(Cc3cc(N)nc4[nH]nnc34)cn2)cc1` [Example 73, 4-((4-((5-Amino-3H-[1,2,3]triazolo[4,5-b]pyridin-7-yl)methyl)-1H-pyrazol-1-yl)methyl)benzamide] was run?
A: 1000 to 10000 nM

Q: `Nc1cc(Cc2ccc(C(F)(F)F)o2)c2nn[nH]c2n1` [Example 70, 7-{[5-(Trifluoromethyl)furan-2-yl]methyl}-3H-[1,2,3]triazolo[4,5-b]pyridin-5-amine] was tested. Which IC50 did it give?
A: 1000 to 10000 nM

Q: With `COc1ccc2cccc(-n3cc(Cc4cc(N)nc5[nH]nnc45)cn3)c2c1` [Example 35, 7-((1-(7-Methoxynaphthalen-1-yl)-1H-pyrazol-4-yl)methyl)-3H-[1,2,3]triazolo[4,5-b]pyridin-5-amine] as the compound, how does the IC50 read?
A: 1 to 100 nM

Q: Which IC50 does the source give for `COc1cc(-n2cc(Cc3cc(N)nc4[nH]nnc34)cn2)ccn1` [Example 32, 7-((1-(2-Methoxypyridin-4-yl)-1H-pyrazol-4-yl)methyl)-3H-[1,2,3]triazolo[4,5-b]pyridin-5-amine] here?
A: 101 to 999 nM

Q: With `Nc1cc(Cc2cnn(-c3cccc(OCc4ccccc4)c3)c2)c2nn[nH]c2n1` [Example 37, 7-((1-(3-(Benzyloxy)phenyl)-1H-pyrazol-4-yl)methyl)-3H-[1,2,3]triazolo[4,5-b]pyridin-5-amine] as the compound, how does the IC50 read?
A: 1 to 100 nM

Q: For `Nc1cc(Cc2cnn(-c3cccc4cccnc34)c2)c2nn[nH]c2n1` [Example 16, 7-((1-(Quinolin-8-yl)-1H-pyrazol-4-yl)methyl)-3H-[1,2,3]triazolo[4,5-b]pyridin-5-amine], which IC50 is on record?
A: 101 to 999 nM

Q: Which IC50 does the source give for `Nc1cc(Cc2cnn(-c3ccc(=O)[nH]c3)c2)c2nn[nH]c2n1` [Example 38, 5-(4-((5-Amino-3H-[1,2,3]triazolo[4,5-b]pyridin-7-yl)methyl)-1H-pyrazol-1-yl)pyridin-2(1H)-one] here?
A: 101 to 999 nM

Q: Which IC50 does the source give for `Nc1cc(Cc2cnn(-c3cncc(F)c3)c2)c2nn[nH]c2n1` [Example 22, 7-((1-(5-Fluoropyridin-3-yl)-1H-pyrazol-4-yl)methyl)-3H-[1,2,3]triazolo[4,5-b]pyridin-5-amine] here?
A: 101 to 999 nM

Q: For `Nc1cc(Cc2cnn(-c3cncc4ccccc34)c2)c2nn[nH]c2n1` [Example 18, 7-((1-(Isoquinolin-4-yl)-1H-pyrazol-4-yl)methyl)-3H-[1,2,3]triazolo[4,5-b]pyridin-5-amine], which IC50 is on record?
A: 1 to 100 nM

Q: For `Nc1cc(Cc2cnn(-c3cccc(Br)c3)c2)c2nn[nH]c2n1` [Example 29, 7-((1-(3-Bromophenyl)-1H-pyrazol-4-yl)methyl)-3H-[1,2,3]triazolo[4,5-b]pyridin-5-amine], which IC50 is on record?
A: 1 to 100 nM

Q: For `Nc1cc(Cc2cnn(-c3cccnc3)c2)c2nn[nH]c2n1` [Example 30, 7-((1-(Pyridin-3-yl)-1H-pyrazol-4-yl)methyl)-3H-[1,2,3]triazolo[4,5-b]pyridin-5-amine], which IC50 is on record?
A: 1 to 100 nM

Q: `CC(c1ccccc1)n1cc(Cc2cc(N)nc3[nH]nnc23)cn1` (stereo not drawn) [Example 63, 7-((1-(1-Phenylethyl)-1H-pyrazol-4-yl)methyl)-3H-[1,2,3]triazolo[4,5-b]pyridin-5-amine] was tested. Which IC50 did it give?
A: 1 to 100 nM

Q: Which IC50 does the source give for `Nc1cc(Cc2cnc(-c3ccc(F)cc3)s2)c2nn[nH]c2n1` [Example 47, 7-((2-(4-Fluorophenyl)thiazol-5-yl)methyl)-3H-[1,2,3]triazolo[4,5-b]pyridin-5-amine] here?
A: 101 to 999 nM

Q: `Nc1cc(Cc2cnn(-c3cccc(C4CC4)c3)c2)c2nn[nH]c2n1` [Example 15, 7-((1-(3-Cyclopropylphenyl)-1H-pyrazol-4-yl)methyl)-3H-[1,2,3]triazolo[4,5-b]pyridin-5-amine] was tested. Which IC50 did it give?
A: 1 to 100 nM

Q: Which IC50 does the source give for `COc1ccccc1-n1cc(Cc2cc(N)nc3[nH]nnc23)cn1` [Example 28, 7-((1-(2-Methoxyphenyl)-1H-pyrazol-4-yl)methyl)-3H-[1,2,3]triazolo[4,5-b]pyridin-5-amine] here?
A: 101 to 999 nM

Q: For `CS(=O)(=O)c1ccc(Cn2cc(Cc3cc(N)nc4[nH]nnc34)cn2)cc1` [Example 58, 7-((1-(4-(Methylsulfonyl)benzyl)-1H-pyrazol-4-yl)methyl)-3H-[1,2,3]triazolo[4,5-b]pyridin-5-amine], which IC50 is on record?
A: 101 to 999 nM

Q: Which IC50 does the source give for `Nc1cc(Cc2cnn(-c3ccc4ccccc4c3)c2)c2nn[nH]c2n1` [Example 12, 7-((1-(Naphthalen-2-yl)-1H-pyrazol-4-yl)methyl)-3H-[1,2,3]triazolo[4,5-b]pyridin-5-amine] here?
A: 101 to 999 nM

The compounds below were run against T1, myeloperoxidase (MPO) (assay: MPO chlorination assay (APF assay)). Conditions: potency range class.
Assay type: biochemical
Experimental: [formula] where A=minimal Y value (activity level of inhibited sample), B=maximal Y value (activity level of uninhibited sample), C=Log IC50, D=Hill Slope, x=concentration of inhibitor. MPO Chlorination Assay (APF Assay) MPO chlorination activity was measured in 100 mM KPi (pH 7.4) by utilizing the non-fluorescent reagent Aminophenyl fluorescein (APF, Invitrogen Cat. #A36003). APF is cleaved by (—OCl) to yield the fluorescent compound fluorescein. Reactions were carried out in 50 μL total volume by adding a 25 μL mixture of 200 pM myeloperoxidase and 120 mM NaCl to 100 nL inhibitor in 100% DMSO in a 384 well, non-binding surface clear bottom plate (Corning #3655). Enzyme, inhibitor, and chloride were preincubated for ten minutes at room temperature. After the ten minute preincubation, 25 μL of an APF mixture containing […], 120 mM NaCl and 10 μM H2O2 was added to the plate using the internal dispensing system of a Hammatsu FDSS 6000. Kinetic determinations were carried out immediately on the FDSS 6000 (3 minute kinetic read, 1 read every second, ex: 485 nm, em: 535 nm). IC50 values for inhibitors were calculated by taking the slope of the linear portion of the kinetic measurement (20 seconds to ˜80-120 secs). IC50 values were calculated by determining the slope of the linear portion of the kinetic trace […], and using that calculated slope to determine % inhibition occurring at each concentration of inhibitor using the following equation: [formula] where A=minimal Y value (activity level of inhibited sample), B=maximal Y value (activity level of uninhibited sample), C=Log IC50, D=Hill Slope, x=concentration of inhibitor. EPX Bromination Assay

Q: Which IC50 does the source give for `Nc1cc(Cc2cnn(Cc3cc([C@@H]4CCNC4)ccc3OC(F)F)c2)c2nn[nH]c2n1` [Example 200, 7-[(1-{[2-(Difluoromethoxy)-5-[(3 S)-pyrrolidin-3-yl]phenyl]methyl}-1H-pyrazol-4-yl)methyl]-3H-[1,2,3]triazolo[4,5-b]pyridin-5-amine] here?
A: 1 to 100 nM

Q: How did the IC50 turn out when `Nc1cc(Cc2cnn(Cc3cc([C@@H]4CCNC4)ccc3Cl)c2)c2nn[nH]c2n1` [Example 198, 7-{[1-({2-Chloro-5-[(3 S)-pyrrolidin-3-yl]phenyl}methyl)-1H-pyrazol-4-yl]methyl}-3H-[1,2,3]triazolo[4,5-b]pyridin-5-amine] was run?
A: 101 to 999 nM

Q: `Nc1cc(Cc2cnn(Cc3cccc(Cc4ccccc4)c3)c2)c2nn[nH]c2n1` [Example 67, 7-((1-(3-Benzylbenzyl)-1H-pyrazol-4-yl)methyl)-3H-[1,2,3]triazolo[4,5-b]pyridin-5-amine] was tested. Which IC50 did it give?
A: 1 to 100 nM

Q: `Nc1cc(Cc2cnn(-c3cccc4ccccc34)c2)c2nn[nH]c2n1` [Example 9, 7-((1-(Naphthalen-1-yl)-1H-pyrazol-4-yl)methyl)-3H-[1,2,3]triazolo[4,5-b]pyridin-5-amine] was tested. Which IC50 did it give?
A: 1 to 100 nM

Q: Which IC50 does the source give for `C[C@@H]1CN(c2cccc(Cn3cc(Cc4cc(N)nc5[nH]nnc45)cn3)c2)C[C@H](C)O1` [Example 228, 7-{[1-({3-[cis-2,6-Dimethylmorpholin-4-yl]phenyl}methyl)-1H-pyrazol-4-yl]methyl}-3H-[1,2,3]triazolo[4,5-b]pyridin-5-amine] here?
A: 101 to 999 nM
